The source of these data is patent US20120251551A1, “Substituted (Heteroarylmethyl)thiohydantoins” (BAYER PHARMA AKTIENGESELLSCHAFT, priority 2009, published 2012).

In assay [1] the target is T1, wild-type human androgen receptor (Homo sapiens, UniProt P10275).
T1 construct: expressed in transfected cells
T1 sequence (P10275 1-920): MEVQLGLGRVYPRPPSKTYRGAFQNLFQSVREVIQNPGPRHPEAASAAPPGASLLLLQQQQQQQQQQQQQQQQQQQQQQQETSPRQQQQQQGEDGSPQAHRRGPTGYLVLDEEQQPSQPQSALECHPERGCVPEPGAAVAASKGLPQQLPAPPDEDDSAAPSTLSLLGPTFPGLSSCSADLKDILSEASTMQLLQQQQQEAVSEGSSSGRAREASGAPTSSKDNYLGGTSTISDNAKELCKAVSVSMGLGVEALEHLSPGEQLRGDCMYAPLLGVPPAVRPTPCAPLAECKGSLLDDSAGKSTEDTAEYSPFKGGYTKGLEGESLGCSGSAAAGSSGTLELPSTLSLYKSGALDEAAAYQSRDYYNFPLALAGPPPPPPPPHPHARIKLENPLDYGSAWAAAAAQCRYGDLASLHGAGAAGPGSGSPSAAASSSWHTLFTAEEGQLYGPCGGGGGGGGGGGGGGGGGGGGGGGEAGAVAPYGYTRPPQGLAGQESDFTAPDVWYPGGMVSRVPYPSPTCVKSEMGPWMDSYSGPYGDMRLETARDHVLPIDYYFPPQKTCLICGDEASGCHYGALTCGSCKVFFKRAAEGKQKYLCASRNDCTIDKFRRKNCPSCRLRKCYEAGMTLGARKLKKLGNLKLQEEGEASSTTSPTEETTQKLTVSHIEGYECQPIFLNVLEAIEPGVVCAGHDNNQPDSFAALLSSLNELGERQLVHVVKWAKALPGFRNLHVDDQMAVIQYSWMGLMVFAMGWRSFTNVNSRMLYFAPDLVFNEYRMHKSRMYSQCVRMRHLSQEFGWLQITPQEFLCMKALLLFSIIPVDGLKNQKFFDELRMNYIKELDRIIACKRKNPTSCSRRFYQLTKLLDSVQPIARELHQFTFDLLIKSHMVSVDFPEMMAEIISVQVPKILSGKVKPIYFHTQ
The assay is described as follows: Cell-based transactivation assay for wild-type human androgen receptor (PC-3 cells, MMTV-luciferase reporter). (In general: Reporter assays use an easily measured gene product as a stand-in for the process of interest.)

Another assay has as its system VCaP cells. Briefly: Proliferation assay with VCaP cells. Format: cell-based. The settings on record: Homo sapiens, 168 h, R1881 (1×10^−10) stimulated growth. In outline: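 Cells in DMEM with 10% charcoal-stripped serum treated one day after seeding with R1881 (1×10^−10) plus compound. Cell number read by Alamar Blue fluorescence (ex 530/em 590 nm) at day 0 and day 7; day-7 R1881-only signal defines stimulated growth, day-7 signal without R1881 defines basal level.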

For assay [2], the target named is T2, human androgen receptor W741C mutant (Homo sapiens, UniProt P10275, W742C).
T2 construct: expressed in transfected cells; host or cells: PC-3 cells, transient transfection with a pSG5-derived plasmid
T2 sequence (P10275 1-920 W742C): T1 sequence (P10275 1-920) with W742C
The assay is described as follows: Cell-based transactivation assay for human androgen receptor mutant W741C.
Experimental: Cell-Based Transactivation Assay for Human Androgen Receptor Mutant W741L or W741C
PC-3 cells (Kaighn et al., Invest. Urol. 17:16-23, 1979) were grown in 5% charcoal-stripped medium and seeded at a concentration of 10000 cells per well in a 96-well plate. They were transiently transfected with a pSG5-derived plasmid (#216201 from Stratagene, La Jolla, Calif., USA) coding for the human androgen receptor W741L or W741C mutant Mara et al., Cancer Research, 63: 149-153, 2003) and an MMTV-Luciferase reporter plasmid based on pGL4.14 14 (#E6691, Promega Corporation, Madison, Wis., USA). The compound to be tested was added at a concentration range varying from 1×10^−9 to 1×10 M together with 1×10^−10 R1881. After 24 h incubation at 37° C. in a 5% CO2 atmosphere, 100 μl of Steady Glo Lysis and Detection reagent (Steady Glo Luciferase assay system E2550 from Promega Corporation. Madison, Wis., USA) were added. Antagonistic activity was determined by measuring Luciferase activity in a Victor 3 Luminometer (PerkinElmer, Waltham, Mass., USA) using the Steady Glo Luciferase Assay (E2550, Promega). IC50 values were calculated for anti-androgenic activity.

The next assay concerns LNCaP cells. The assay is described as follows: Proliferation assay with LNCaP cells. Type of assay: cell-based. The settings on record: Homo sapiens, 168 h, R1881 (1×10^−10) stimulated growth, day 7, read-out: inhibition IC50 (LNCaP). In outline: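 LNCaP cells were grown in phenol red-free RPMI with 5% charcoal-stripped serum and, after 3 days, treated with R1881 (1×10^−10) plus compound. Cell number was measured by Alamar Blue fluorescence at day 0 and day 7. R1881-only signal at day 7 defined stimulated growth, and day-7 signal without R1881 defined basal.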

[3] abbreviates: day 7, read-out: Antiproliferative activity VCaP IC50.
Where [4] appears, read: day 7, read-out: inhibition IC50 (VCaP).

Where a chain is given by its changes, count along the chain named. Read-outs that look alike come from different tables or passages of the source. Where only a bound is given, the exact number is not on record here.

Turning to `CN1C(=S)N(c2ccc(C#N)c(C(F)(F)F)c2)C(=O)C1(C)C` [2-(Trifluoromethyl)-4-(3,4,4-trimethyl-5-oxo-2-thioxoimidazolidin-1-yl)benzonitrile, reference compound], a half-maximal effect in assay [1] (EC50) was put at 7.97 nM. In addition, the IC50 (as a rule, the point on the concentration scale where inhibition reaches its midpoint) is greater than 1000 nM in the assay with VCaP cells (setting [3]) and 21.2 nM in assay [2].

On to `CC1(C)C(=O)N(c2ccc(C#N)c(C(F)(F)F)c2)C(=S)N1CCCCO` [4-[3-(4-Hydroxybutyl)-4,4-dimethyl-5-oxo-2-thioxoimidazolidin-1-yl]-2-(trifluoromethyl)benzonitrile, reference compound], for which the EC50 – broadly, the midpoint of the concentration-response curve – in assay [1] is 8.13 nM. Moreover, the IC50 in the assay with VCaP cells (setting [3]) is greater than 1000 nM; in assay [2], 27.1 nM.

For the compound `CC1(C)C(=O)N(c2ccc(C#N)c(C(F)(F)F)c2)C(=S)N1Cc1ccc(F)cc1` [Comparative data^4], in assay [1], a half-maximal response (EC50) required 1.79 nM. In addition, the IC50 (in the assay on VCaP cells (setting [3]); in assay [2]) was greater than 1000 nM each time.

Turning to `CC1(C)C(=O)N(c2ccc(C#N)c(C(F)(F)F)c2)C(=S)N1Cc1ccccc1` [Comparative data^4], the EC50 in assay [1] came to 46.4 nM. Moreover, the IC50 in the assay with VCaP cells (setting [3]) is greater than 1000 nM; in assay [2], 142 nM.

With `CC1(C)C(=O)N(c2ccc(C#N)c(C(F)(F)F)c2)C(=S)N1Cc1ccc(-n2ccnc2)nc1` [Example 1, 4-(3-{[6-(1H-Imidazol-1-yl)pyridin-3-yl]methyl}-4,4-dimethyl-5-oxo-2-thioxoimidazolidin-1-yl)-2-(trifluoromethyl)benzonitrile], in assay [1], the EC50 was greater than 10000 nM. For the same compound, the IC50 in the assay on LNCaP cells stood at 59 nM; in the assay on VCaP cells (setting [3]), 291 nM; in assay [2], 216 nM.

Regarding `CC1(C)C(=O)N(c2ccc(C#N)c(C(F)(F)F)c2)C(=S)N1Cc1ccc(C(F)(F)F)nc1` [Example 2, 4-(4,4-Dimethyl-5-oxo-2-thioxo-3-{[6-(trifluoromethyl)pyridin-3-yl]methyl}imidazolidin-1-yl)-2-(trifluoromethyl)benzonitrile], the EC50 in assay [1] worked out at 5430 nM. For the same compound, the IC50 was found to be 314 nM with LNCaP cells and 247 nM with VCaP cells (setting [3]).

In the case of `CC1(C)C(=O)N(c2ccc(C#N)c(C(F)(F)F)c2)C(=S)N1Cc1ccc(N2CCOCC2)nc1` [Example 4, 4-(4,4-Dimethyl-3-{[6-(morpholin-4-yl)pyridin-3-yl]methyl}-5-oxo-2-thioxoimidazolidin-1-yl)-2-(trifluoromethyl)benzonitrile], in assay [1], the concentration giving a half-maximal response (EC50) is greater than 10000 nM. Also, the half-maximal inhibitory concentration (IC50) with LNCaP cells was 117 nM; in the assay with VCaP cells (setting [3]) it was 124 nM; with VCaP cells (setting [4]), 124 nM; in assay [2], 270 nM.

On to `CC1(C)C(=O)N(c2ccc(C#N)c(C(F)(F)F)c2)C(=S)N1Cc1ccc(N2CCS(=N)(=O)CC2)nc1` [Example 9, 4-(3-{[6-(1-Imino-1-oxido-1λ^6-thiomorpholin-4-yl)pyridin-3-yl]methyl}-4,4-dimethyl-5-oxo-2-thioxoimidazolidin-1-yl)-2-(trifluoromethyl)benzonitrile], for which the EC50 in assay [1] was greater than 10000 nM. In the assay with LNCaP cells, the IC50 was found to be 303 nM.

Compound `CC(C)(O)COc1ccc(CN2C(=S)N(c3ccc(C#N)c(C(F)(F)F)c3)C(=O)C2(C)C)cn1` [Example 10, 4-(3-{[6-(2-Hydroxy-2-methylpropoxy)pyridin-3-yl]methyl}-4,4-dimethyl-5-oxo-2-thioxoimidazolidin-1-yl)-2-(trifluoromethyl)benzonitrile] gave an EC50 in assay [1] greater than 10000 nM. Further, the IC50 was 283 nM in the assay on LNCaP cells, 229 nM with VCaP cells (setting [3]), 229 nM in the assay with VCaP cells (setting [4]) and 115 nM in assay [2].

`Cc1nc(C(F)(F)F)ccc1CN1C(=S)N(c2ccc(C#N)c(C(F)(F)F)c2)C(=O)C1(C)C` [Example 13, 4-(4,4-Dimethyl-3-{[2-methyl-6-(trifluoromethyl)pyridin-3-yl]methyl}-5-oxo-2-thioxoimidazolidin-1-yl)-2-(trifluoromethyl)benzonitrile] had an EC50 in assay [1] greater than 10000 nM. Also, the concentration for half-maximal inhibition (IC50) in the assay with LNCaP cells worked out at 124 nM; in the assay with VCaP cells (setting [3]), 300 nM.
